What was measured:
Assay in all cases: relative viability (nuclei count vs DMSO), 5 days (fraction); higher = more cells survive
[1] = compound: O=C(/C=C/c1cccnc1)NCCCCC1CCN(C(=O)c2ccccc2)CC1 [Daporinad] + O=C(c1cc(Cc2n[nH]c(=O)c3ccccc23)ccc1F)N1CCN(C(=O)C2CC2)CC1 [Olaparib] (partner 8 µM)
Summary of the method: (§1)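 For relative viability, nuclei counts in treated wells were divided by those in vehicle wells. Lung cancer cell lines had been pin-tool dosed in 1536-well plates the day after seeding and cultured for 5 days, then fixed and stained in one step (final 0.05% Triton X-100, 1% formaldehyde, 1 ug/ml Hoechst) and imaged at 4×. Doses were one drug alone or a fixed anchor-drug dose plus five library-drug doses (not always all listed) in √10 steps, and values are duplicate-plate medians.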

[2] = compound: COc1cc(Nc2ncc(F)c(Nc3ccc4c(n3)NC(=O)C(C)(C)O4)n2)cc(OC)c1OC [R406] + CCNC(=O)c1noc(-c2cc(C(C)C)c(O)cc2O)c1-c1ccc(CN2CCOCC2)cc1 [Luminespib] (partner 0.01 µM)
Summary of the method: as §1

[3] = compound: O=C(/C=C/c1cccnc1)NCCCCC1CCN(C(=O)c2ccccc2)CC1 [Daporinad] + CS(=O)(=O)N1CCN(Cc2cc3nc(-c4cccc5[nH]ncc45)nc(N4CCOCC4)c3s2)CC1 [Pictilisib] (partner 1 µM)
Summary of the method: as §1

[4] = compound: COc1cc(Nc2ncc(F)c(Nc3ccc4c(n3)NC(=O)C(C)(C)O4)n2)cc(OC)c1OC [R406] + CC(=O)Nc1cccc(-n2c(=O)n(C3CC3)c(=O)c3c(Nc4ccc(I)cc4F)n(C)c(=O)c(C)c32)c1 [Trametinib] (partner 0.02 µM)
Summary of the method: as §1

Row | Cell Line | relative viability ([1]; first compound 0.0005 µM) | relative viability ([1]; first compound 0.001581 µM) | relative viability ([1]; first compound 0.005 µM) | relative viability ([1]; first compound 0.01581 µM) | relative viability ([2]; first compound 0.08 µM) | relative viability ([2]; first compound 0.253 µM) | relative viability ([2]; first compound 0.8 µM) | relative viability ([2]; first compound 2.53 µM) | relative viability ([2]; first compound 8 µM) | relative viability ([3]; first compound 0.0005 µM) | relative viability ([3]; first compound 0.001581 µM) | relative viability ([3]; first compound 0.005 µM) | relative viability ([3]; first compound 0.01581 µM) | relative viability ([4]; first compound 0.08 µM) | relative viability ([4]; first compound 0.253 µM) | relative viability ([4]; first compound 0.8 µM) | relative viability ([4]; first compound 2.53 µM) | relative viability ([4]; first compound 8 µM)
1 | LXF-289 | 0.952 | 1.13 | 0.929 | 0.945 | 0.629 | 0.733 | 0.713 | 0.447 | 0.405 | 0.714 | 0.862 | 0.879 | 0.859 | 0.675 | 0.694 | 0.68 | 0.67 | 0.672
2 | NCI-H23 | 0.221 | 0.245 | 0.238 | 0.172 | 0.217 | 0.251 | 0.228 | 0.181 | 0.168 | 0.59 | 0.502 | 0.446 | 0.347 | 0.288 | 0.376 | 0.444 | 0.399 | 0.128
3 | NCI-H322M | 0.547 | 0.567 | 0.547 | 0.516 | 0.791 | 0.827 | 0.855 | 0.306 | 0.35 | 0.482 | 0.55 | 0.575 | 0.52 | 0.515 | 0.532 | 0.452 | 0.475 | 0.421
4 | NCI-H358 | 0.556 | 0.507 | 0.351 | 0.293 | 0.313 | 0.555 | 0.492 | 0.147 | 0.136 | 0.266 | 0.405 | 0.338 | 0.438 | 0.131 | 0.144 | 0.14 | 0.0877 | 0.103
5 | NCI-H441 | 0.488 | 0.554 | 0.344 | 0.237 | 0.399 | 0.373 | 0.432 | 0.277 | 0.209 | 0.435 | 0.631 | 0.588 | 0.507 | 0.462 | 0.452 | 0.539 | 0.283 | 0.184
6 | NCI-H522 | 0.659 | 0.621 | 0.573 | 0.49 | 1.09 | 1.31 | 1.32 | 0.841 | 1.04 | – | – | – | – | 0.779 | 0.917 | 0.787 | 0.746 | 0.599
7 | NCI-H1299 | 0.972 | 0.857 | 0.904 | 0.855 | – | – | – | – | – | 0.736 | 0.809 | 0.839 | 0.739 | – | – | – | – | –
8 | NCI-H1563 | – | – | – | – | 0.542 | 0.654 | 0.475 | 0.485 | 0.452 | 0.639 | 0.642 | 0.605 | 0.701 | – | – | – | – | –
9 | NCI-H1623 | – | – | – | – | 0.435 | 0.483 | 0.66 | 0.371 | 0.424 | – | – | – | – | – | – | – | – | –
10 | NCI-H1648 | 0.641 | 0.667 | – | 0.523 | – | – | – | – | – | – | – | – | – | 0.564 | 0.432 | 0.557 | 0.463 | 0.4
11 | NCI-H1703 | 0.514 | 0.388 | 0.576 | 0.41 | – | – | – | – | – | 0.236 | 0.283 | 0.259 | 0.265 | – | – | – | – | –
12 | NCI-H2342 | 0.409 | 0.456 | 0.427 | 0.367 | 0.757 | 0.811 | 0.819 | 0.581 | 0.76 | – | – | – | – | 0.724 | 0.841 | 0.8 | 0.753 | 0.844
13 | SW 900 | 0.624 | – | 0.572 | 0.375 | 0.18 | 0.186 | 0.177 | 0.125 | 0.117 | – | – | – | – | 0.958 | 0.805 | 0.906 | 0.764 | 0.118

Source: the supplement of paper PMC10307832
